Source: patent US12269816B2, “Benzothiophene compound, preparation method therefor and use thereof” (SICHUAN KELUN-BIOTECH BIOPHARMACEUTICAL CO., LTD., priority 2019, dated 2025)

Tests used:
[1] = tested on: STING and its downstream proteins TBK1 and IRF3 in THP-1 cells; assay: Western blotting of phosphorylation of STING signal pathway proteins in human THP-1 cells; assay type: cell-based; conditions: 3 hours, protein blotting, FIGS. 1-5, result in words
Text: (§1) In this experiment, the changes in the phosphorylation levels of STING and its downstream proteins TBK1 (TANK-binding kinase 1) and IRF3 (interferon regulatory factor 3) were detected by protein blotting to evaluate the agonistic effect of the test compounds on the STING signal pathway at the cellular level.
The THP-1 cells in the logarithmic phase were centrifuged, and resuspended in a cell culture solution to a density of […]. The cell suspension was inoculated into a 12-well cell culture plate (Corning) at 0.5 mL/well. The compound to be tested was diluted with a cell culture solution to 2× working solution concentration (control compounds 1 and 2: 60 μM; compounds 1 and 3: 0.6 μM, 6 μM, and 60 μM; compounds 2, 4, 6 and 8: 6 μM, 20 μM, and 60 μM). 0.5 mL of the diluted solution of the compound was added into a 12-well plate (500 μl of the culture solution containing 2% DMSO was added into the negative control well), and the plate was incubated in a cell incubator for 3 hours. After the incubation, the cells were collected by centrifugation, lysed with 60 μL cell lysis buffer (CST) for 30 minutes, and centrifuged at 12,000 rpm for 15 minutes. The supernatant was collected to determine the protein concentration, and then an appropriate amount of 5× protein loading buffer was added. The mixture was heated at 95° C. for 10 minutes to prepare a protein electrophoresis sample. Finally protein blotting was performed to detect the phosphorylation level of the corresponding protein. The primary antibodies used in the protein blotting were purchased from CST: STING (D2P2F) rabbit mAb, Phospho-STING (Ser366) rabbit mAb, Phospho-IRF3 (Ser396) (D601M) rabbit mAb, IRF3 (D83B9) rabbit mAb, TBK1/NAK (D1B4) rabbit mAb, Phospho-TBK1/NAK (Ser172) (D52C2) XP® rabbit mAb, and GAPDH (D16H11) rabbit mAb; and the secondary antibody horseradish peroxidase-conjugated goat anti-rabbit IgG (H+L) was purchased from Zsgb-bio.

[2] = tested on: STING-mediated interferon (IFN) signal reporter gene in THP1-Blue™ ISG cells; assay: STING-mediated interferon (IFN) signal SEAP reporter gene assay in THP1-Blue ISG cells; assay type: cell-based, human; conditions: for EC50: Homo sapiens, 16 h incubation, SEAP reporter read at OD620nm; for Emax (OD620nm): highest OD620nm value generated by stimulation of the compound, 16 h; for agonistic effect on the STING-mediated Interferon (IFN) signal pathway: result in words
Text: In this experiment, the activity of the SEAP (secreted embryonic alkaline phosphatase) reporter gene regulated by the IFN regulatory factor (interferon regulatory factor) was detected in the THP1-Blue™ ISG cells (InvivoGen) to evaluate the agonistic effect of the compounds to be tested on the STING-mediated IFN signal pathway at the cellular level.
The THP1-Blue™ ISG cells (InvivoGen) in the logarithmic phase were centrifuged, and resuspended in a cell culture solution to a density of 2×10^6 cells/ml. The cell suspension was inoculated in a 96-well cell culture plate (Corning) at 50 μL/well. The mother liquor of the compound to be tested was gradiently diluted with a cell culture solution to obtain a 2× working concentration diluted solution (control compounds 1 and 2 were diluted at a 3-fold gradient: 200, 66.67, 22.22, 7.41, 2.47, 0.82, 0.27 and 0 μM; compounds 1, 2, 4, 6, 8, and 23 were diluted at a 8-fold gradient: 60, 7.5, 0.94, 0.12, 0.015, 0.0018, 0.00023 and 0 μM; and compounds 3 and 5 were diluted at a 10-fold gradient: 10, 1, 0.1, 0.01, 0.001, 0.0001, 0.00001 and 0 μM). The 2× working concentration diluted solution of the compound was added into a 96-well plate (50 μl of the culture solution containing 2% DMSO was added into the negative control well) at 50 μL/well. The culture plate was then placed in a cell incubator, and incubated for 16 h. After the cell incubation, 10 μL of the cell culture supernatant was transferred to a 96-well plate, and a QUANTI-Blue (InvivoGen) solution was added at 90 μL/well. The cells were incubated at 37° C. for 3 h. The absorbance at 620 nm (OD620nm) was read with a microplate reader.
In the table, EC50 refers to the concentration of a compound when ODM620nm value generated by stimulation of the compound reaches half of Emax; and Emax refers to the highest OD620nm value generated by stimulation of the compound.

[3] = tested on: STING and its downstream proteins TBK1 and IRF3 in Raw264.7 cells; assay: Western blotting of phosphorylation of STING signal pathway proteins in mouse Raw264.7 cells; assay type: cell-based; conditions: 3 hours, protein blotting, FIGS. 6-7, result in words
Text: as §1
The Raw264.7 cells in the logarithmic phase were centrifuged, and resuspended in a cell culture solution to a density of 1.6×10^6 cells/mL. The cell suspension was inoculated into a 6-well cell culture plate (Corning) at 1 mL/well. The compound to be tested was diluted with a cell culture solution to 2× working solution concentration (control compounds 1 and 2: 60 μM; compound 8: 0.6 μM, 6 μM, and 60 μM; compounds 2, 4 and 6: 6 μM, 20 μM, and 60 μM). 1 mL of the diluted solution of the compound was added into a 6-well plate (1 mL of the culture solution containing 2% DMSO was added into the negative control well). The plate was placed in a cell incubator, and incubated for 3 hours. After the incubation, the cells were collected by centrifugation, lysed with 60 μL cell lysis buffer (CST) for 30 minutes, and centrifuged at 12000 rpm for 15 minutes. The supernatant was collected to determine the protein concentration, and then an appropriate amount of 5× protein loading buffer was added. The mixture was heated at 95° C. for 10 minutes to prepare a protein electrophoresis sample. Finally, protein blotting was performed to detect the phosphorylation level of the corresponding protein. The primary antibodies used in the protein blotting were purchased from CST: STING (D2P2F) rabbit mAb, Phospho-STING (Ser365) rabbit mAb, Phospho-IRF3 (Ser396) (D601M) rabbit mAb, IRF3 (D83B9) rabbit mAb, TBK1/NAK (D1B4) rabbit mAb, Phospho-TBK1/NAK (Ser172) (D52C2) XPV rabbit mAb, GAPDH (D16H11) rabbit mAb; and the secondary antibody horseradish peroxidase-conjugated goat anti-rabbit IgG (H+L) was purchased from Zsgb-bio.

| SMILES | agonistic effect on the phosphorylation levels of STING, TBK1 and IRF3 [1] | EC50 [2] [nM] | Emax (OD620nm) [2] [OD620nm] | agonistic effect on the STING-mediated Interferon (IFN) signal pathway [2] | agonistic effect on the phosphorylation levels of STING, TBK1 and IRF3 [3] |
| --- | --- | --- | --- | --- | --- |
| CCOC(=O)CCC(=O)c1cc2cc(OC)c(OCCCOc3cc4sc(C(=O)N(C)CCC(=O)OCC)cc4cc3OC)cc2s1 [Compound 1, ethyl 4-(6-(3-((2-((3-ethoxy-3-oxopropyl)(methyl)carbamoyl)-5-methoxybenzo[b]thiophen-6-yl)oxy)propoxy)-5-methoxybenzo[b]thiophen-2-yl)-4-oxobutyrate] | strong agonistic effects | 0.57 | 1.54 | strong agonistic effects |  |
| COc1cc2cc(C(=O)CCC(=O)O)sc2cc1OCCCOc1cc2sc(C(=O)N(C)CCC(=O)O)cc2cc1OC [Compound 2, 4-(6-(3-((2-((2-carboxyethyl)(methyl)carbamoyl)-5-methoxybenzo[b]thiophen-6-yl)oxy)propoxy)-5-methoxybenzo[b]thiophen-2-yl)-4-oxobutanoic acid] | strong agonistic effects | 457 | 1.82 | strong agonistic effects | strong agonistic effects |
